# Test results published in patent US6441026B1, “Antitumor compositions containing taxane derivatives” (priority 1995, dated 2002).
# Read-outs that look alike come from different tables or passages of the source.
# How the values were obtained:
# C38 colon adenocarcinoma = settings: optimum dose, i.v., days 21,25,29,33: Taxotere 22 mg/kg/inj; 5-fluorouracil 43.4; combination Taxotere 17.6 + 5-fluorouracil 27.0 (simultaneous)
# Text: (§1) log10 cells killed=T−C(days)/3.32×Td
# (§2) The animals are autopsied when sacrificed.
# Colon 51 = settings: for Responses TFS (tumor free survivors): on day 122
# Method: as §1, §2
# (§3) The tumor model used to evaluate each drug combination was selected, in general, on the basis of its responsiveness to each of the agents when used as monotherapy. Using i.v. intermittent schedules, full dose response trials were conducted for each single agent and each combination.
# (§4) In addition to the parameters described above, the combination toxicity index (CTI) was determined. […] Rep. 66: 1187-1200 (1982). […] It indicates the extent in host toxicity overlap.
# [1] = tested on: MA13/c mammary adenocarcinoma; settings: optimum dose, i.v.: Taxotere 15 mg/kg/inj days 14,17,20; cyclophosphamide 118 mg/kg day 14; combination Taxotere 7.5 + cyclophosphamide 90.0 mg/kg/inj
# Method: This efficacy may be quantified, for example, by the log10 cells killed, which is determined according to the following formula:
# A product is considered to be active if log10 cells killed is greater than or equal to 0.7. A product is considered to be very active if log10 cells killed is greater than 2.8.
# The combination, used at its own maximum tolerated dose, in which each of the constituents will be present at a dose generally not exceeding its maximum tolerated dose, will manifest therapeutic synergy when the log10 cells killed is greater than the value of the log10 cells killed of the best constituent when it is administered alone.
# The efficacy of the combinations on solid tumors may be determined experimentally in the following manner:
# The animals subjected to the experiment, generally mice, are subcutaneously grafted bilaterally with 30 to 60 mg of a tumor fragment on day 0. The animals bearing tumors are mixed before being subjected to the various treatments and controls. […]
# The tumors are measured 2 or 3 times a week until the tumor reaches approximately 2 g, or until the animal dies if this occurs before the tumor reaches 2 g. […]
# The antitumor activity is determined in accordance with the different parameters recorded.
# MA13/C = settings: mouse, in vivo
# Method: as §1, §2, §3, §4
# MA 17/C = settings: mouse, in vivo, iv, 40.3 mg/kg
# Method: as §1, §2, §3, §4
# [2] = CPT-11 trial: CPT-11 PO 42.5 mg/kg/inj 5,9 2x/d, acetocyclopropyl taxotere IV 21.1 days 5,9, combination 21.0 + 11.9 simult.
# [3] = cisplatin trial, days 5,12: acetocyclopropyl taxotere 30.0 mg/kg/inj IV, cisplatinum 3.1, combination 13.6 + 2.0 simult.
structure (smiles),measurement,setting,value
O=c1[nH]cc(F)c(=O)[nH]1 [5-fluorouracil],log10 cells killed,C38 colon adenocarcinoma,1.1
CCc1c2c(nc3ccc(OC(=O)N4CCC(N5CCCCC5)CC4)cc13)-c1cc3c(c(=O)n1C2)COC(=O)[C@]3(O)CC [CPT-11],% bwl loss at nadir,Colon 51; [2],3.7%
same,T/C %,Colon 51; [2],0%
same,day of nadir (body weight loss),Colon 51; [2],(7) day
same,log cell kill,"Colon 51; CPT-11 trial: CPT-11 PO 42.5 mg/kg/inj 5,9 2x/d, acetocyclopropyl taxotere IV 21.1 days 5,9, combination 21.0 + 11.9 simult., Td = 2 days",1.1
"N.N.[Cl][Pt][Cl] [Cisplatinum, cisplatin]",T/C %,Colon 51; [3],0%
same,log cell kill,"Colon 51; cisplatin trial, days 5,12: acetocyclopropyl taxotere 30.0 mg/kg/inj IV, cisplatinum 3.1, combination 13.6 + 2.0 simult., Td = 2.5 days",2.7
same,Responses TFS (tumor free survivors),Colon 51; [3],0/7
same,Responses TFS (tumor free survivors),"Colon 51; cisplatin trial, days 5,12: acetocyclopropyl taxotere 30.0 mg/kg/inj IV, cisplatinum 3.1, combination 13.6 + 2.0 simult., listed as cisplatin",no tumor free survivors
"O=P1(N(CCCl)CCCl)NCCCO1 (centres unmarked) [Cylcophosphamide, cyclophosphamide]",log10 cells killed,[1],1.3
"COc1cccc2c1C(=O)c1c(O)c3c(c(O)c1C2=O)C[C@@](O)(C(=O)CO)C[C@@H]3O[C@H]1C[C@H](N)[C@H](O)[C@H](C)O1 [Doxorubicin, doxorubicin]",Responses CR (Complete Response),MA13/C,3/5
same,log cell kill,MA13/C,3.0
CCC1=C[C@@H]2CN(C1)Cc1c([nH]c3ccccc13)[C@@](C(=O)OC)(c1cc3c(cc1OC)N(C)[C@H]1[C@@](O)(C(=O)OC)[C@H](OC(C)=O)[C@]4(CC)C=CCN5CC[C@]31[C@@H]54)C2 [Navelbine],Responses TFS (tumor free survivors),MA 17/C,0/6
same,T/C %,MA 17/C,0%
same,log cell kill,MA 17/C,5.5
CC(=O)O[C@@]12CO[C@@H]1C[C@H](O)[C@@]1(C)C(=O)[C@H](O)C3=C(C)[C@@H](OC(=O)[C@H](O)[C@@H](NC(=O)OC(C)(C)C)c4ccccc4)C[C@@](O)([C@@H](OC(=O)c4ccccc4)[C@H]21)C3(C)C [Taxotere],log10 cells killed,C38 colon adenocarcinoma,1.4
same,log10 cells killed,[1],2.8
